Patent US9133435B2, “Method for induction/differentiation into photoreceptor cell” (RIKEN, priority 2007, dated 2015)

Tests used:
[1] = system: FACS-purified ES-derived Rx-GFP+ retinal progenitor cells; assay: Differentiation of FACS-purified ES-derived retinal progenitor cells into Crx+ photoreceptor precursors (immunostaining); format: cell-based, mouse
Experimental: Methods for mouse ES cell maintenance and differentiation in SFEB conditions were previously reported (reference documents A7, 20). For the sake of the SFEB/DLFA, Dkk1 (R & D Systems, 100 ng/ml, during days 0-5), LeftyA (R & D Systems, 500 ng/ml, during days 0-5), 5% FCS (JRH Biosciences, during days 3-5), and Activin-A (R & D Systems, 10 ng/ml, during days 4-5) were added to a differentiation medium (G-MEM, 5% KSR, 0.1 mM non-essential amino acids, 1 mM pyruvic acid, and 0.1 mM 2-mercaptoethanol) (reference document A6).
(§1) For FACS (see below), until day 9, cell aggregates were incubated in a differentiation medium under suspension culture conditions. After FACS, 1−2×10^4 sorted cells were re-suspended in a differentiation medium containing 10% FCS, and to produce re-aggregated pellets, the suspension was centrifuged at 800 g for 10 minutes. After cultivation at 37° C. for 1 hour, three to five re-aggregated pellets per cm^2 were replated on a poly-D-lysine/laminin/fibronectin-coated culture slides with a differentiation medium supplemented with 10% FCS. On day 10, the culture medium was changed to a differentiation medium not containing FCS, and containing or not containing the gamma secretase inhibitor N—[N-(3,5-difluorophenacetyl)-L-alanyl]-S-phenylglycine t-butyl ester (DAPT, 10 μM, Calbiochem).
On day 9, SFEB/DLFA-treated ES cell aggregates were dissociated with trypsin (0.25%, Invitrogen) and DNaseI (10 μg/ml, Sigma) into single cells. After neutralization, the cells were re-suspended in HBSS containing 0.1% BSA and 5 μg/ml propidium iodide (PI, Sigma), and passed through a cell strainer (BD) as described previously (reference documents A7, 21). The cells were counted and sorted using FACS Aria (BD Biosciences), and data were analyzed using the FACS Diva software (BD Biosciences). Dead cells were excluded by gating forward and side scatter and PI staining. Cells with Rx-GFP fluorescence (band-pass filter: FITC, 530 nm) were sorted and further cultured. […]
(§2) The immunoreactivity of each antibody was confirmed by immunostaining an appropriate retinal tissue as a positive control under the same conditions. Total cell counts were determined by counting nuclei stained by TOTO-3 or DAPI (Molecular Probes). Positive cells were counted in optical slice images prepared by confocal (Leica) or ApoTome (Zeiss) microscopy.
For statistical analyses, at least 2500 cells were examined in each experiment, which was performed at least 3 times. […] The statistical significance of differences was determined by one-way analysis of variance (ANOVA) followed by Tukey's test for the experiments in FIG. 1f, by one-way ANOVA followed by Dunnett's multiple comparison test for the experiment in FIG. 3b, by two-way ANOVA followed by Bonferroni's test for the experiment in FIG. 1j-l. […]

Retinae of E17.5 mouse = assay: Tissue culture of embryonic retina treated with DAPT (Crx staining, RT-PCR); format: cell-based; conditions: 10 μM DAPT
Experimental: FIG. 4 The gamma secretase inhibitor DAPT promotes the differentiation of photoreceptor precursors. Retinae of E17.5 mouse were treated, or not treated, with 10 μM DAPT under tissue culture conditions for 2-4 days. (a, b) Two days later, the retinae were stained for Crx (green) and TOTO-3 (blue). Many Crx^+ (green) photoreceptor precursors were found in the DAPT-treated retina (a), whereas several Crx^+ were found in non-treated retina (b). GC, ganglion cell layer; NBL, neuroblastic layer; ONL, outer nuclear layer. (c) RT-PCR analysis of retina treated or not treated with DAPT for 2 or 4 days. It was confirmed that the expression of Hes1 and Hes5 had been decreased in the DAPT-treated retina.
RT-PCR analysis was performed as reported previously (reference documents A7, 20). The primers used are as follows: […]

purified Rx+ cells = assay: Ki67 expression, BrdU uptake and active caspase 3 in purified Rx+ cells; format: cell-based, mouse
Experimental: as §1
BrdU uptake was examined by culturing the cells in a medium containing 5 μg/ml BrdU for 24 hours before fixation.
(§3) Immunohistological staining was performed as described previously (reference documents A20, 24). The primary antibodies used in this study were as follows: • Anti-Crx (rat/polyclonal/1:200, reference document A6), • Anti-Ki67 (mouse/monoclonal/1:200/BD), • Anti-BrdU (mouse/monoclonal/1:50/BD), • Anti-active caspase-3 (rabbit/monoclonal/1:500/BD), • Anti-red/green opsin (rabbit/polyclonal/1:1000/Chemicon), • Anti-blue opsin (rabbit/polyclonal/1:500/Chemicon), • Anti-rhodopsin (RetP1; mouse/monoclonal/1:1000/SIGMA) and • Anti-Recoverin (rabbit/polyclonal/1:5000/Chemicon).
as §2
(§4) For statistical analyses, at least 2500 cells were examined in each experiment, which was performed at least 3 times. All statistical analyses were performed using GraphPad InStat version 3.0 (GraphPad Software Inc., San Diego, Calif., USA). The statistical significance of differences was determined by one-way analysis of variance (ANOVA) followed by Tukey's test for the experiments in FIG. 1f, by one-way ANOVA followed by Dunnett's multiple comparison test for the experiment in FIG. 3b, by two-way ANOVA followed by Bonferroni's test for the experiment in FIG. 1j-l. Probability values less than 5% were considered significant.

[2] = system: purified ES-derived Rx+ cells; assay: Differentiation of ES-derived photoreceptor precursors into opsin+ cone and rhodopsin+ rod photoreceptors; format: cell-based, mouse; conditions: for rod differentiation, factor added individually: after FACS purification and DAPT, acidic FGF 50 ng/ml, basic FGF 10 ng/ml, taurine 1 mM, shh 3 nM, RA 500 nM, from day 16, day 28
Experimental: as §1
For photoreceptor differentiation, on day 16, the medium was replaced with a retinal culture medium containing the factors shown in FIG. 3a (66% E-MEM-HEPES (Sigma M7278), 33% HBSS (Gibco 24020-117), 1% FCS supplemented with N2, 5.75 mg/ml glucose, 200 μM L-glutamine, 100 U/ml penicillin, and 100 μg/ml streptomycin (Gibco)). aFGF (R & D Systems) and bFGF (R & D Systems) were added during differentiation for 16-24 days; taurine (Sigma), shh (R & D Systems), and RA (Sigma) were added during differentiation days 16-28. The medium was replaced with a fresh supply every 2 days.
as §3, §2, §4

monkey ES cells = assay: Differentiation of monkey ES cells into retinal cells (SFEB culture, immunocytochemistry); format: cell-based, cynomolgus monkey; conditions: day 40, Dkk-1 100 ng/ml, Lefty-A 500 ng/ml
Experimental: ES colonies were partially dissociated with 0.25% trypsin (in a PBS containing 1 mM CaCl2 and 20% KSR) into clumps (5 to 10 cells per clump). It is noticeable that when this clumps of ES cells were too large (for example, exceeding 50 cells per aggregate), the neural induction efficiency declined. When ES cells dispersed to single cells were used, the cell viability declined, and retinal cells could not efficiently be induced. ES clumps were incubated on a gelatin-coated dish for 30 minutes, whereby STO feeders were removed. ES clumps were plated on a dish of bacterial grade using an ES differentiation medium at a density of 6.7×10^3 aggregate per ml. The composition of the differentiation medium was as follows. [G-MEM (GIBCO), 10% KSR, Lot.1139720 and 1219101, 0.1 mM non-essential amino acids, 1 mM pyruvate and 0.1 mM 2-mercaptoethanol]. […]
Values are expressed as means±S.E.M. For statistic analysis, 100 to 200 colonies in each experiment were examined, each experiment being performed at least 3 times. […] For the experiments in FIG. 7b, statistical significance of difference was determined by one-way analysis of variance (ANOVA) followed by Dunnet's test. The data obtained from FIG. 8a, d, e, h and i were evaluated by unpaired t-test. […]

[3] = DAPT from day 10, retinal differentiation medium from day 16, day 28

C[C@H](NC(=O)Cc1cc(F)cc(F)c1)C(=O)N[C@H](C(=O)OC(C)(C)C)c1ccccc1 [DAPT, N—[N-(3,5-difluorophenacetyl)-L-alanyl]-S-phenylglycine t-butyl ester]
frequency of Crx+ cell aggregates ([1]; 10 μM DAPT, most effective on days 10 to 20): significantly raised
Crx expression in Rx-GFP− cells ([1]; Rx-GFP− cells treated with DAPT from day 10, day 20): did not express Crx
promotion of differentiation into Crx+ photoreceptor precursors in non-FACS-sorted cells ([1]; non-FACS-sorted ES cell-derived neural retinal progenitor cells treated with DAPT): no evident promotion
percentage of Crx+ cells ([1]; sorted Rx-GFP+ cells, 10 μM DAPT from day 10, determined on day 20): 22.4±2.9%
ratio of Crx+ photoreceptor precursors in embryonic retinal tissue (Retinae of E17.5 mouse; tissue culture): considerably increased
expression of the differentiation inhibitors Hes1 and Hes5 (Retinae of E17.5 mouse; tissue culture 2 or 4 days, RT-PCR): suppressed
proportion of cells positive for active caspase (purified Rx+ cells; day 11): 0.17±0.04%
proportion of cells positive for active caspase (purified Rx+ cells; day 12): 0.13±0.04%
proportion of cells positive for active caspase (purified Rx+ cells; day 14): 0.10±0.07%
Ki67+ cell population versus non-treated cells (purified Rx+ cells; day 14 and thereafter, DAPT from day 10): smaller
proportion of cells positive for active caspase (purified Rx+ cells; day 16): 0.10±0.01%
proportion of cells positive for active caspase (purified Rx+ cells; day 18): 0.13±0.02%
proportion of cells positive for active caspase (purified Rx+ cells; day 20): 0.10±0.15%
proportion of cells positive for active caspase, DAPT-treated versus non-treated (purified Rx+ cells; days 11-20, Ki67+ population): no significant difference
BrdU+ cells versus non-treated control (purified Rx+ cells; days 14-20, BrdU uptake 24 hours): fewer
ES-derived cells expressing blue opsin [2, 3]: 10.7±1.6%
ES-derived cells expressing red/green opsin [2, 3]: 11.5±2.0%
cells expressing rhodopsin ([2]; DAPT only, no further factors, day 28): 5.5±0.5%

NCCS(=O)(=O)O [taurine]
rod differentiation, factor added individually [2]: promoted rod differentiation

acidic FGF: acidic FGF (R & D Systems), soluble factor
rod differentiation, factor added individually [2]: promoted rod differentiation

basic FGF: basic FGF (R & D Systems), soluble factor
rod differentiation, factor added individually [2]: promoted rod differentiation

B1: Dkk-1: Recombinant Dkk-1 protein, Wnt antagonist (protein, UniProt O94907 32-266, looked up)
Dickkopf-related protein 1: TLNSVLNSNAIKNLPPPLGGAAGHPGSAVSAAPGILYPGGNKYQTIDNYQPYPCAEDEECGTDEYCASPTRGGDAGVQICLACRKRRKRCMRHAMCCPGNYCKNGICVSSDQNHFRGEIEETITESFGNDHSTLDGYSRRTTLSSKMYHTKGQEGSVCLRSSDCASGLCCARHFWSKICKPVLKEGQVCTKHRRKGSHGLEIFQRCYCGEGLSCRIQKDHHQASNSSRLHTCQRH
ratio of Mitf+ colonies (monkey ES cells): 35.3±4.4%

B2: Lefty-A: Lefty-A protein, nodal antagonist (protein, UniProt O00292 77-366, looked up)
Left-right determination …: RFSQSFREVAGRFLASEASTHLLVFGMEQRLPPNSELVQAVLRLFQEPVPKAALHRHGRLSPRSAQARVTVEWLRVRDDGSNRTSLIDSRLVSVHESGWKAFDVTEAVNFWQQLSRPRQPLLLQVSVQREHLGPLASGAHKLVRFASQGAPAGLGEPQLELHTLDLRDYGAQGDCDPEAPMTEGTRCCRQEMYIDLQGMKWAKNWVLEPPGFLAYECVGTCQQPPEALAFNWPFLGPRQCIASETASLPMIVSIKEGGRTRPQVVSLPNMRVQKCSCASDGALVPRRLQP
ratio of Mitf+ colonies (monkey ES cells): 50.8±5.0%
